What all share (assay type): biochemical
Assay [1] addresses T1, VEGFR-2 (Homo sapiens, UniProt P35968).
T1 construct: The kinase domain of the enzyme was purified to homogeneity from a baculovirus expression system; made in house
The assay is described as follows: VEGFR-2 kinase assay. The conditions noted are these: kinase inhibition, Table 3; read-out: VEGFR2 (IC50). The protocol:
The peptide substrate used in the VEGFR-2 assay was biotin-aminohexyl-[…]-NH2. The kinase domain of the enzyme was purified to homogeneity from a baculovirus expression system. The enzyme was preactivated on ice for 15 min in the presence of 100 μM ATP and 20 mM MgCl2, and stored at −80° C. until needed for assay. The activated enzyme was diluted to 0.4 nM into a 60 μl reaction containing 100 mM HEPES, pH 7.5, 5 μM ATP, 10 mM MgCl2, 5 μM peptide, 0.1 mM DTT, 0.05 mg/ml BSA, and an inhibitor at varying concentrations. The controls were reactions in the presence (negative controls) or absence (positive controls) of 50 mM EDTA. Reactions were incubated for 30 min at room temperature, and then quenched by the addition of EDTA to 60 mM in 210 μl. The quenched samples (190 μl) were transferred to a neutravidin-coated plate (Pierce) and incubated at room temperature for 40 min to allow biotinylated peptide to bind to the neutravidin. The unbound components of the reaction were removed by washing with a plate washer, then 200 μl HRP-PY20 anti-phosphotyrosine antibody conjugate was added to each well. After incubation for 40 min, the plate was washed to remove any unbound anitbody. A HRP substrate, K-blue (Neogen) was added and the reaction was quenched with Red Stop (Neogen) after 20 min. The absorbance of the wells was read at A650 in a plate reader. IC50 values were obtained by fitting raw data to A650=VMAX*(1−[I]/IC50+[I])))+b, where b is background.

For assay [2], the target named is T2, c-fms (Homo sapiens, UniProt P07333).
T2 construct: The c-fms intracellular domain was expressed from a baculovirus expression system; GST (N); made in house
T2 sequence (P07333 539-972 limits assumed): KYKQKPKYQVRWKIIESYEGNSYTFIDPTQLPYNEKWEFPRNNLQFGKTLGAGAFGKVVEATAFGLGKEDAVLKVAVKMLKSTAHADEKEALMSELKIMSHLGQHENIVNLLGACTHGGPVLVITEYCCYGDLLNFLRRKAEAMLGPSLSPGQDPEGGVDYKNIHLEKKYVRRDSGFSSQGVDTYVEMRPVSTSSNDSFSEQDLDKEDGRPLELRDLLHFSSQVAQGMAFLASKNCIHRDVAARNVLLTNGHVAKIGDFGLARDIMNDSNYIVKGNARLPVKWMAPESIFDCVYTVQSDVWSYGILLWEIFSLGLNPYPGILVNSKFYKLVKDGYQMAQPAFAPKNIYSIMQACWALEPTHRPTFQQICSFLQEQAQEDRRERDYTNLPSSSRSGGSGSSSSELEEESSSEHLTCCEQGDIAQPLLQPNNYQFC
The assay is described as follows: c-fms protein kinase assay. The conditions noted are these: kinase inhibition, Table 3. As for the experimental part:
c-fms protein kinase assays utilized the peptide substrate, biotin-[…]-NH2 as the phosphoryl group acceptor. The c-fms intracellular domain was expressed from a baculovirus expression system, as an amino-terminal GST fusion protein, and purified to homogeneity using Glutathione agarose from Sigma Chemical Co. Maximum activation of the enzyme was achieved by preactivation at room temperature for 120 min in the presence of 100 μM ATP and 15 mM MgCl2, This enzyme stock was diluted to 150 nM prior to using in the assay. Typically assays were performed in white, opaque, 96-well plates in a 45 ul assay volume including 15 ul 6% DMSO, with or without compounds, 15 ul of the preactivated, diluted enzyme, and 15 ul of a substrate mixture. Reactions contained 50 mM HEPES, pH 7.5, 1.7 μM ATP, 15 mM MgCl2, 3 μM peptide, 2.5 mM DTT, 50 mM NaCl and 0.15 uCi/assay [□□^32P]ATP. The controls were reactions in the presence (negative controls) or absence (positive controls) of 50 mM EDTA. Reactions were allowed to proceed for 90 min at room temperature. The reaction products were quantified using Scintillation Proximity technolgy. The reactions were quenched by the addition of 200 ul of a solution containing 0.3 mg streptavidin SPA beads from Amersham, 50 mM EDTA, 0.1% TX-100, 50 uM ATP, in PBS, pH7.2 (phosphate buffered solution). Plates were sealed and counted in a Packard Topcount scintillation counter. IC50 values were obtained by fitting raw data to the equation y=Vmax*(1−(x/(k+x))).

The target of assay [3] is CDK2 (Homo sapiens, UniProt P24941). Kind of assay: CDK2 substrate phosphorylation assay. The conditions noted are these: kinase inhibition, Table 3. The protocol: Cyclin dependent protein kinase assays utilized the peptides Biotin-aminohexyl-[…] and Biotin-aminohexyl-[…]-NH2 as phosphoryl group acceptors. CDK2 was expressed utilizing a baculovirus expression system and was partially purified to comprise 20-80% of total protein, with no detectable competing reactions present. Typically, assays were performed by incubating enzyme (0.2-10 nM), with and without inhibitor, one of the two peptide substrates ([…]), [γ-^32P]ATP ([…]), and 10-20 mM Mg^2+ for periods of time generally within the range 10-120 min. Reactions were terminated with 0.2-2 volumes of either 20% acetic acid or 50-100 mM EDTA buffered to pH 7 (substrate consumption <20%). The buffer employed in enzyme assays was either 30 mM HEPES 7.4 containing 0.15 M NaCl and 5% DMSO, the buffer 50 mM MOPS 7.0 containing 0.15 M NaCl and 5% DMSO, or the buffer 100 mM HEPES pH 7.5 containing 0.1 mg/mL BSA and 5% DMSO. Inhibitors were diluted in 100% DMSO prior to addition into the assay. Detection of peptide phosphorylation was accomplished by scintillation counting following either collection of peptide onto phosphocellulose filters (for reactions stopped with acetic acid), collection of peptide in wells of 96 well plates coated with Streptavidin (Pierce) (reactions were stopped with EDTA), or addition of Avidin coated Scintillant impregnated beads (Scintillation Proximity Assays from Amersham; reactions were stopped with EDTA).

The term IC50 denotes the concentration that gives 50% inhibition.

T1 sequence (P35968 834-1162 limits assumed, species assumed): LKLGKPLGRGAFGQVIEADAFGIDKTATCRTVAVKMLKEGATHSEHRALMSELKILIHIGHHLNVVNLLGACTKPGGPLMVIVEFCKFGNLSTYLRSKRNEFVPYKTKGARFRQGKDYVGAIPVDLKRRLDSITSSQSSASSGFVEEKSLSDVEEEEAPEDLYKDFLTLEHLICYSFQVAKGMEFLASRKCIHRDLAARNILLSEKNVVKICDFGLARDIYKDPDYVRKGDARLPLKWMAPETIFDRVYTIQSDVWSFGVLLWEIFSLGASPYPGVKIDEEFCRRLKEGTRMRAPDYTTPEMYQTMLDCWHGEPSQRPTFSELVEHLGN

Regarding `O=C1Nc2ncc(Br)cc2C1=CNc1ccc2ncccc2c1` [Example 19, 5-Bromo-3-[(6-quinolinylamino)methylidene]-1,3-dihydro-2H-pyrrolo[2,3-b]pyridin-2-one], the IC50 in assay [1] fell in the range of 100 to 1000 nM; in assay [2], 1000 to 10000 nM; in assay [3], 10 to 100 nM.

Turning to `O=C1Nc2nc(Cl)ccc2C1=CNc1ccc2cn[nH]c2c1` [Example 21, 6-Chloro-3-[(1H-indazol-6-ylamino)methylidene]-1,3-dihydro-2H-pyrrolo[2,3-b]pyridin-2-one], the concentration for half-maximal inhibition (IC50) in assay [1] was in the range of 100 to 1000 nM; in assay [2], 1000 to 10000 nM; in assay [3] it was 100 to 1000 nM.

On to `CCOC(=O)c1cnc2c(c1)C(=CNc1ccc(S(N)(=O)=O)cc1)C(=O)N2` [Example 23, Ethyl 3-{[4-(aminosulfonyl)anilino]methylidene}-2-oxo-1,2-dihydro-3H-pyrrolo[2,3-b]pyridine-5-carboxylate], for which the concentration for half-maximal inhibition (IC50) in assay [1] was in the range of 100 to 1000 nM; in assay [2] it was 1000 to 10000 nM; in assay [3], 10 to 100 nM.

For the compound `CCOC(=O)c1cnc2c(c1)C(=CNc1ccc3cn[nH]c3c1)C(=O)N2` [Example 24, Ethyl 3-[(1H-indazol-6-ylamino)methylidene]-2-oxo-1,2-dihydro-3H-pyrrolo[2,3-b]pyridine-5-carboxylate], the IC50 in assay [1] lay in the range of 10 to 100 nM; in assay [2] it was 1000 to 10000 nM; in assay [3], 10 to 100 nM.

Values taken from patent US6815439B2, “Substituted aza-oxindole derivatives” (SmithKline Beecham Corporation, priority 1999, dated 2004).
